Laboratory results from patent US9079861B2, “Cyclic urea inhibitors of 11β-hydroxysteroid dehydrogenase 1” (Vitae Pharmaceuticals, Inc., priority 2007, dated 2015).
Read-outs that look alike come from different tables or passages of the source.

Target: T1, human 11β-HSD1 (Homo sapiens, UniProt P28845)
T1 construct: expressed in transfected cells; host or cells: CHO cells (microsomes)
Assay: Biological Test Example 1: inhibition of microsomal preparation of 11β-HSD1 (SPA)
Type: biochemical
Settings: for IC50: microsomes from CHO cells overexpressing human 11β-HSD1; for inhibition at 0.1 µM: read-out: Average % inhibition at 100 nM; for Average % inhibition at 100 nM: 0.1 µM
Description: The inhibition of microsomal preparation of 11β-HSD1 by compounds of the invention was measured essentially as previously described (K. Solly, S. S. Mundt, H. J. Zokian, G. J. Ding, A. Hermanowski-Vosatka, B. Strulovici, and W. Zheng, High-Throughput Screening of 11-Beta-Hydroxysteroid Dehydrogenase Type 1 in Scintillation Proximity Assay Format. Assay Drug Dev Technol 3 (2005) 377-384). All reactions were carried out at room temperature in 96 well clear flexible PET Microbeta plates (PerkinElmer). The assay begins by dispensing 49 μl of substrate solution (50 mM HEPES, pH 7.4, 100 mM KCl, 5 mM NaCl, 2 mM MgCl2, 2 mM NADPH and 160 nM [^3H]cortisone (1 Ci/mmol)) and mixing in 1 μL of the test compounds in DMSO previously diluted in half-log increments (8 points) starting at 0.1 mM. After a 10 minute pre-incubation, 50 μL of enzyme solution containing microsomes isolated from CHO cells overexpressing human 11β-HSD1 (10-20 μg/ml of total protein) was added, and the plates were incubated for 90 minutes at room temperature. The reaction was stopped by adding 50 μl of the SPA beads suspension containing 10 μM 18β-glycyrrhetinic acid, 5 mg/ml protein A coated YSi SPA beads (GE Healthcare) and 3.3 μg/ml of anti-cortisol antibody (East Coast Biologics) in Superblock buffer (Bio-Rad). The plates were shaken for 120 minutes at room temperature, and the SPA signal corresponding to [^3H]cortisol was measured on a Microbeta plate reader.

T1 sequence (P28845 whole entry): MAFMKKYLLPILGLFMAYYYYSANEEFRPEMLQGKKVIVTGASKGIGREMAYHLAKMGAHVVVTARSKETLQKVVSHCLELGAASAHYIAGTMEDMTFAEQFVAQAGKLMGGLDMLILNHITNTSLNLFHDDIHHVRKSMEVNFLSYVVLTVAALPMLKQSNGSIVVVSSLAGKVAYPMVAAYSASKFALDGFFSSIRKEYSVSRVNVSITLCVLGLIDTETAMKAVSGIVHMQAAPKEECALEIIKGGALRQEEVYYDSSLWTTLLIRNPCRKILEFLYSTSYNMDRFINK

IC50 (read-out: IC50 Range) | inhibition at 0.1 µM (at 100 nM) | Compound | other results
 |  | C=CC[C@@]1(c2ccc(F)cc2)CCN([C@@H](C)c2ccc(Br)cc2)C(=O)N1 (single isomer, unassigned) [Example 2 Isomer 2] | IC50 (IC50 Range): < 100 nM; inhibition at 0.1 µM: 69.5%
< 100 nM | 97.2% | C[C@@H](c1ccc(-c2ccc(F)cc2F)cc1)N1CC[C@](CCO)(c2ccc(F)cc2)NC1=O (single isomer, unassigned) [Example 6 Isomer 1] | 
< 100 nM | 47.7% | C[C@@H](c1ccc(-c2ccc(F)cc2F)cc1)N1CC[C@@](CCO)(c2ccc(F)cc2)NC1=O (single isomer, unassigned) [Example 6 Isomer 2] | 
< 100 nM | 94.8% | C[C@@H](c1ccc(-c2ccc(F)cc2F)cc1)N1CC[C@](CCCO)(c2ccc(F)cc2)NC1=O (single isomer, unassigned) [Example 7 Isomer 1] | 
< 100 nM | 71% | C[C@@H](c1ccc(-c2ccc(F)cc2F)cc1)N1CC[C@@](CCCO)(c2ccc(F)cc2)NC1=O (single isomer, unassigned) [Example 7 Isomer 2] | 
< 100 nM | 96.3% | C[C@@H](c1ccc(-c2ccc(F)cc2F)cc1)N1CC[C@](CC(O)CO)(c2ccc(F)cc2)NC1=O (single isomer, unassigned) [Example 8 Isomer 1] | 
< 100 nM |  | C[C@@H](c1ccc(-c2ccc(F)cc2F)cc1)N1CC[C@](CC(O)CO)(c2ccc(F)cc2)NC1=O (single isomer, unassigned) [Example 8 Isomer 2] | Average % inhibition at 100 nM (at 100 nM): 94.8%
< 100 nM | 94.5% | C[C@@H](c1ccc(-c2ccc(F)cc2)cc1)N1CC[C@](CC(O)CO)(c2ccc(F)cc2)NC1=O (single isomer, unassigned) [Example 9 Isomer 1] | 
< 100 nM |  | C[C@@H](c1ccc(-c2ccc(F)cc2)cc1)N1CC[C@](CC(O)CO)(c2ccc(F)cc2)NC1=O (single isomer, unassigned) [Example 9 Isomer 2] | Average % inhibition at 100 nM (at 100 nM): 93.5%
< 100 nM |  | C[C@@H](c1ccc(-c2ccc(F)cc2)cc1)N1CC[C@@](CC(O)CO)(c2ccc(F)cc2)NC1=O (single isomer, unassigned) [Example 9 Isomer 3] | Average % inhibition at 100 nM (at 100 nM): 38.5%
> 100 nM |  | C[C@@H](c1ccc(-c2ccc(F)cc2)cc1)N1CC[C@@](CC(O)CO)(c2ccc(F)cc2)NC1=O (single isomer, unassigned) [Example 9 Isomer 4] | Average % inhibition at 100 nM (at 100 nM): 16.5%
< 100 nM | 102% | C[C@@H](c1ccc(-c2ccc(F)cc2)cc1)N1CC[C@](CCCO)(c2ccc(F)cc2)NC1=O (single isomer, unassigned) [Example 10 Isomer 1] | 
< 100 nM | 54.2% | C[C@@H](c1ccc(-c2ccc(F)cc2)cc1)N1CC[C@@](CCCO)(c2ccc(F)cc2)NC1=O (single isomer, unassigned) [Example 10 Isomer 2] | 
< 100 nM | 64.4% | C[C@@H](c1ccc(Br)cc1)N1CC[C@](CCCO)(c2ccc(F)cc2)N(C)C1=O (single isomer, unassigned) [Example 11 Isomer 1] | 
> 100 nM | 26.1% | C[C@@H](c1ccc(Br)cc1)N1CC[C@@](CCCO)(c2ccc(F)cc2)N(C)C1=O (single isomer, unassigned) [Example 11 Isomer 2] | 
< 100 nM | 95.5% | C[C@@H](c1ccc(-c2ccc(F)cc2)cc1)N1CC[C@](CCCO)(c2ccccc2)NC1=O (single isomer, unassigned) [Example 14 Isomer 1] | 
< 100 nM | 58% | C[C@@H](c1ccc(-c2ccc(F)cc2)cc1)N1CC[C@@](CCCO)(c2ccccc2)NC1=O (single isomer, unassigned) [Example 14 Isomer 2] | 
 |  | Cc1cccc(N2CC[C@](C)(c3ccccc3)NC2=O)c1 [Example 1, (R)-4-methyl-4-phenyl-1-m-tolyltetrahydropyrimidin-2(1H)-one] | IC50 (IC50 Range): 100 to 1000 nM; inhibition at 0.1111 µM (read-out: Average % inhibition at 111.1 nM): 49.4%
< 100 nM | 96.9% | C[C@@H](c1ccc(Cl)cc1)N1CC[C@](CCO)(c2ccc(F)cc2)NC1=O [Example 12, (S)-1-((S)-1-(4-chlorophenyl)ethyl)-4-(4-fluorophenyl)-4-(2-hydroxyethyl)tetrahydropyrimidin-2(1H)-one] | 
< 100 nM | 96.1% | C[C@@H](c1ccc(Cl)cc1)N1CC[C@](CCCO)(c2ccc(F)cc2)NC1=O [Example 13, 1-((1S)-1-(4-chlorophenyl)ethyl)-4-(4-fluorophenyl)-4-(3-hydroxypropyl)tetrahydropyrimidin-2(1H)-one] | 
< 100 nM | 96.1% | C[C@@H](C1CCCCC1)N1CC[C@](CCCO)(c2ccccc2)NC1=O [Example 15, (R)-1-((S)-1-cyclohexylethyl)-4-(3-hydroxypropyl)-4-phenyltetrahydropyrimidin-2(1H)-one] | 
< 100 nM | 96.1% | COc1ccc([C@H](C)N2CC[C@](CCCO)(c3ccc(F)cc3)NC2=O)cc1 [Example 16, (R)-4-(4-fluorophenyl)-4-(3-hydroxypropyl)-1-((S)-1-(4-methoxyphenyl)ethyl)tetrahydropyrimidin-2(1H)-one] | 
< 100 nM | 94.3% | COc1ccc([C@H](C)N2CC[C@](CCO)(c3ccc(F)cc3)NC2=O)cc1 [Example 17, (S)-4-(4-fluorophenyl)-4-(2-hydroxyethyl)-1-((S)-1-(4-methoxyphenyl)ethyl)tetrahydropyrimidin-2(1H)-one] | 
< 100 nM | 97.5% | C[C@@H](c1ccc(Br)cc1)N1CC[C@](CCCO)(c2ccc(F)cc2)NC1=O [Example 18, (R)-1-((S)-1-(4-bromophenyl)ethyl)-4-(4-fluorophenyl)-4-(3-hydroxypropyl)tetrahydropyrimidin-2(1H)-one] | 
< 100 nM | 94.4% | C[C@@H](c1ccc(Br)cc1)N1CC[C@](CC(C)(C)O)(c2ccccc2)NC1=O [Example 20, (S)-1-((S)-1-(4-bromophenyl)ethyl)-4-(2-hydroxy-2-methylpropyl)-4-phenyltetrahydropyrimidin-2(1H)-one] | 
< 100 nM | 93.9% | C[C@@H](c1ccc(-c2ccn(C)c(=O)c2)cc1)N1CC[C@](CC(C)(C)O)(c2ccccc2)NC1=O [Example 21, (S)-4-(2-hydroxy-2-methylpropyl)-1-((S)-1-(4-(1-methyl-2-oxo-1,2-dihydropyridin-4-yl)phenyl)ethyl)-4-phenyltetrahydropyrimidin-2(1H)-one] | 
> 100 nM | 30% | C[C@@H](C1CCCCC1)N1CC[C@](CCCO)(c2ccccc2)N(C)C1=O [Example 22, (R)-1-((S)-1-cyclohexylethyl)-4-(3-hydroxypropyl)-3-methyl-4-phenyltetrahydropyrimidin-2(1H)-one] | 
< 100 nM | 95.8% | C[C@@H](c1ccc(Br)cc1)N1CC[C@](CC(C)(C)C#N)(c2ccccc2)NC1=O [Example 23, 3-((R)-1-((S)-1-(4-bromophenyl)ethyl)-2-oxo-4-phenylhexahydropyrimidin-4-yl)-2,2-dimethylpropanenitrile] | 

Compound | IC50 (read-out: IC50 Range) | inhibition at 0.1 µM (at 100 nM) | other results
C=CC[C@]1(c2ccc(F)cc2)CCN([C@@H](C)c2ccc(Br)cc2)C(=O)N1C (single isomer, unassigned) [Example 3 Isomer 1] | < 100 nM |  | inhibition at 0.1 µM: 51.2%
C=CC[C@@]1(c2ccc(F)cc2)CCN([C@@H](C)c2ccc(Br)cc2)C(=O)N1C (single isomer, unassigned) [Example 3 Isomer 2] | < 100 nM |  | inhibition at 0.1 µM: 60.5%
C[C@@H](c1ccc(Br)cc1)N1CC[C@](CCCNS(C)(=O)=O)(c2ccc(F)cc2)NC1=O [Example 19, N-(3-((R)-1-((S)-1-(4-bromophenyl)ethyl)-4-(4-fluorophenyl)-2-oxohexahydropyrimidin-4-yl)propyl)methanesulfonamide] | < 100 nM |  | inhibition at 0.1 µM: 96%
